Test results reported in patent publication US20030158403A1, “Nuclease resistant chimeric oligonucleotides” (ISIS Pharmaceuticals, Inc., priority 2001, published 2003).
In the oligonucleotide strings, read from the 5' end, every base follows the letter of its sugar. An asterisk marks phosphorothioate; unmarked linkages are phosphodiester. Other units and linkages are bracketed, terminal groups are in braces. A string of capitals states the bases alone. [L-DNA] = L-2'-deoxythymidine (L-thymidine); d = 2'-deoxy (DNA)

Assays:
Target RNA = assay: Tm values of L-thymidine modified oligonucleotides against RNA; type: binding
[1] = In vivo nuclease stability of L/D-oligonucleotide chimera, IV bolus, organs analyzed by CGE; conditions: 24 h after IV bolus, BalbC mouse
Protocol: Here we report the in vivo nuclease stability of L/D-oligonucleotide chimera in mouse. We synthesized the phosphoramidite and CPG derived from L-thymidine, which was synthesized from a novel route [Jung, E. M.; Xu, Y. Tetrahedron Lett. 1997, 24, 4199-4202]. A 20 mer phosphorothioate oligonucleotide ISIS-120745 (antisense to mouse ICAM-1) was capped with L-2′-deoxy thymidine at 3′and 5′-positions. The oligonucleotide was then administered IV bolus into BalbC mouse. After 24 h. mouse was sacrificed and the oligonucleotide was isolated from different organs. Percentage of full-length oligonucleotide present in different organs were analyzed by CGE.

| Substance | Tm, Target RNA (Target RNA) | intact full-length oligonucleotide isolated from all the major organs [1] | ΔTm (Target RNA; relative to the unmodified parent oligonucleotide) | degradation in organs [1] |
| --- | --- | --- | --- | --- |
| ISIS 5132: 5′ TCCCGCTGTGATGCATT 3′ (SEQ ID NO: 6), all P = S; unmodified counterpart of 121785 (dT*dC*dC*dC*dG*dC*dT*dG*dT*dG*dA*dT*dG*dC*dA*dT*dT) | 60.6 °C |  |  |  |
| ISIS 120745: 5′ T*GC ATC CCC CAG GCC ACC AT*3′; T* = L-Thymidine, all P = S; antisense to mouse ICAM-1 (antisense TGCATCCCCCAGGCCACCAT; sugars from the 5' end [L-DNA]1 d18 [L-DNA]1, all phosphorothioate, methylation of C not given here) | 66.94 °C | > 90% | −1.76 °C |  |
| ISIS 8651: TGCATCCCCCAGGCCACCAT (SEQ ID NO: 4), all P = S; unmodified counterpart of 120745 (dT*dG*dC*dA*dT*dC*dC*dC*dC*dC*dA*dG*dG*dC*dC*dA*dC*dC*dA*dT) | 68.7 °C |  |  | degraded completely |
